Measured values reported in patent publication US8450342B2, “Perharidines as CDK inhibitors” (Centre Nationale de la Recherche Scientifique, priority 2008, dated 2013).
Like-named read-outs stand apart in the source and are kept apart here.

Columns and labels:
[1] = biological target: CDK1/cyclin B; test: CDK1/cyclin B kinase assay; assay type: biochemical, starfish
Description: (§1) Controls were performed with appropriate dilutions of dimethylsulfoxide.
(§2) ATP (3,000 Ci/mmol; 10 mCi/ml) in a final volume of 30 μl. After 30 min. incubation at 30° C., 25 μl aliquots of supernatant were spotted onto 2.5×3 cm pieces of Whatman P81 phosphocellulose paper, and, 20 sec. later, the filters were washed five times (for at least 5 min. each time) in a solution of 10 ml phosphoric acid/liter of water. The wet filters were counted in the presence of 1 ml ACS (Amersham) scintillation fluid.

[2] = biological target: T1, CDK2/cyclin A (Homo sapiens, UniProt P24941); test: CDK2/cyclin A kinase assay; assay type: biochemical; conditions: Table 5; read-out: CDK2/cyclin A
T1 construct: made in house; host or cells: insect cells
Description: (§3) Blank values were subtracted and activities expressed in % of the maximal activity, i.e. in the absence of inhibitors. Controls were performed with appropriate dilutions of dimethylsulfoxide.
CDK2/cyclin A (human, recombinant, expressed in insect cells) was assayed as described for CDK1/cyclin B.

[3] = biological target: CDK2/cyclin E (Homo sapiens, UniProt P24941); test: CDK2/cyclin E kinase assay; assay type: biochemical; conditions: Table 5
Description: as §1
(§4) The compounds were tested at various concentrations in the kinase assays, as described in the Methods section.

[4] = biological target: T2, CDK5/p25 (Homo sapiens, UniProt Q00535); test: CDK5/p25 kinase assay; assay type: biochemical
T2 construct: made in house
Description: as §1, §2

[5] = biological target: CDK7/cyclin H (Homo sapiens, UniProt P50613); test: CDK7/cyclin H kinase assay; assay type: biochemical; conditions: Table 4
Description: as §3, §4

[6] = biological target: T3, CDK9/cyclin T (Homo sapiens, UniProt P50750); test: CDK9/cyclin T kinase assay; assay type: biochemical; conditions: Table 5; read-out: CDK9/cyclin T
T3 construct: made in house; host or cells: insect cells
Description: as §3

[7] = biological target: CK1δ/ε; test: CK1 kinase assay; assay type: biochemical, porcine; conditions: read-out: CK1
Description: as §3

[8] = biological target: DYRK1A (Homo sapiens, UniProt Q13627); test: DYRK1A kinase assay; assay type: biochemical; conditions: Table 5; read-out: DYRK1A
Description: as §3, §4

[9] = biological target: Erk2 (Homo sapiens, UniProt P28482); test: Erk2 kinase assay; assay type: biochemical; conditions: Table 5
Description: as §3, §4

[10] = biological target: GSK-3α/β; test: GSK-3α/β kinase assay; assay type: biochemical, porcine
Description: as §3

[11] = tested on: SH-SY5Y human neuroblastoma cells; test: Cell survival (MTS assay), SH-SY5Y; assay type: cell-based; conditions: read-out: SH-SY5Y cell survival
Description: (§5) SH-SY5Y human neuroblastoma cells were grown in DMEM medium (Invitrogen, Cergy Pontoise, France). […] Human foreskin primary fibroblasts (kindly provided by Dr. Gilles Ponzio) were grown in DMEM supplemented with 2 mM L-glutamine and 20 mM HEPES. All the media were supplemented with antibiotics (penicillin-streptomycin) from Lonza and 10% volume of FCS from Invitrogen. Cells were cultured at 37° C. with 5% CO2. Drug treatments were performed on exponentially growing cultures at the indicated time and concentrations. Control experiments were carried out using appropriate dilutions of DMSO. MDCK cell-lines were used to test compounds PKD.

[12] = tested on: HEK 293 human embryonic kidney cell line; test: Cell survival (MTS assay), HEK293; assay type: cell-based
Description: as §5

[13] = tested on: LS 174T; test: Cell survival, LS 174T; assay type: cell-based; conditions: Homo sapiens, LS174T; Table 6
Description: Cell viability was determined by measuring the reduction of 3-(4,5-dimethylthiazol-2-yl)-5-(3-carboxymethoxyphenyl)-2-(4-sulfophenyl)-2H-tetrazolium (MTS). Cell death was determined by measuring the level of lactate dehydrogenase activity (LDH) released upon cell lysis.

[14] = tested on: HCT116 (Spheroids); test: Cell survival, HCT116 (Spheroids); assay type: cell-based; conditions: Homo sapiens, HCT-116; Table 6
[15] = tested on: B2-CLL lymphocytes; test: Survival / cell death of B2-CLL lymphocytes from patients; assay type: cell-based, human
Description: Cell viability was determined by measuring the reduction of 3-(4,5-dimethylthiazol-2-yl)-5-(3-carboxymethoxyphenyl)-2-(4-sulfophenyl)-2/H-tetrazolium (MTS). Cell death was determined by measuring the level of lactate dehydrogenase activity (LDH) released upon cell lysis.

[16] = tested on: retinoblastoma protein phosphorylation; test: Western blot, retinoblastoma protein phosphorylation on CDK2/CDK4 sites in SH-SY5Y; assay type: cell-based, human; conditions: for total Rb: FIG. 8
Description: as §5
(§6) Cells were resuspended and lysed for 30 minutes at 4° C. in Homogenization Buffer [60 mM β-glycerophosphate, 15 mM p-nitrophenyl phosphate, 25 mM MOPS (pH 7.2), 15 mM EGTA, 15 mM MgCl2, 1 mM dithiothreitol, 1 mM sodium vanadate, 1 mM NaF, 1 mM phenylphosphate, 0.1% Nonidet P-40 and protease inhibitor cocktail] and sonicated. After centrifugation (14000 rpm for 15 minutes at 4° C.), the protein concentration was determined in the supernatants by the Bradford protein assay (Bio-Rad).
(§7) Whole cell extracts were prepared in buffer containing 100 mM Tris/HCl (pH, 6.8), 1 mM EDTA, 2% SDS and protease inhibitor cocktail. Following heat denaturation for 5 minutes, proteins were separated on 10% or 7% NuPAGE pre-cast Bis-Tris or Tris-Acetate polyacrylamide mini gels (Invitrogen) with MOPS SDS (all but cytochrome C, RNA polymerase II and phospho-Ser2—RNA polymerase II Western blots), MES SDS (cytochrome C), or Tris-Acetate SDS (RNA polymerase II and phospho-Ser2—RNA polymerase II) running buffer depending on protein size. Proteins were transferred to 0.45 μm nitrocellulose filters (Schleicher and Schuell). These were blocked with 5% low fat milk in Tris-Buffered Saline—Tween-20, incubated for 1 h with antibodies (anti-actin: 1:2000) or overnight at 4° C. (cytochome C: 1:500), Rb (1:500), phosphor-Rb (1:500), phospho-Thr320-PP1α (1:1000), RNA polymerase II (1:500), phosphor-Ser2-RNA polymerase II (1:500), Mcl-1 (1:500), caspase-9 (1:1000) and analyzed by Enhanced Chemiluminescence (ECL, Amersham).

[17] = tested on: RNA polymerase II Ser2 phosphorylation; test: Western blot, RNA polymerase II Ser2 phosphorylation in SH-SY5Y; assay type: cell-based, human; conditions: for total RNA pol II: FIG. 10
Description: (§8) SH-SY5Y human neuroblastoma cells were grown in DMEM medium (Invitrogen, Cergy Pontoise, France). The HEK 293 human embryonic kidney cell line was grown in MEM medium from Invitrogen. Human foreskin primary fibroblasts (kindly provided by Dr. Gilles Ponzio) were grown in DMEM supplemented with 2 mM L-glutamine and 20 mM HEPES. All the media were supplemented with antibiotics (penicillin-streptomycin) from Lonza and 10% volume of FCS from Invitrogen. Cells were cultured at 37° C. with 5% CO2. Drug treatments were performed on exponentially growing cultures at the indicated time and concentrations. Control experiments were carried out using appropriate dilutions of DMSO. MDCK cell-lines were used to test compounds PKD.
as §6, §7

[18] = tested on: LS 174T (Oncodesign); test: Cell survival, LS 174T (Oncodesign); assay type: cell-based; conditions: Homo sapiens, LS174T; Table 6
[19] = tested on: HCT116 (Oncodesign); test: Cell survival, HCT116 (Oncodesign); assay type: cell-based; conditions: Homo sapiens, HCT-116; Table 6
[20] = tested on: protein phosphatase 1-α Thr320 phosphorylation; test: Western blot, protein phosphatase 1-α phosphorylation on Thr320 in SH-SY5Y; assay type: cell-based, human; conditions: FIG. 11, compared with (R)-Roscovitine
Description: as §8, §6
(§9) Whole cell extracts were prepared in buffer containing 100 mM Tris/HCl (pH, 6.8), 1 mM EDTA, 2% SDS and protease inhibitor cocktail. […]

[21] = tested on: Mcl-1; test: Western blot, survival factor Mcl-1 in SH-SY5Y; assay type: cell-based, human; conditions: FIG. 12, compared with (R)-Roscovitine
Description: as §8, §6, §9

[22] = tested on: p53 total protein; test: Western blot, p53 total protein in SH-SY5Y; assay type: cell-based, human; conditions: FIG. 13, compared with (R)-Roscovitine
Description: as §8, §6, §9

[23] = tested on: p27 total protein; test: Western blot, p27 total protein in SH-SY5Y; assay type: cell-based, human; conditions: FIG. 14, compared with (R)-Roscovitine
Description: as §8, §6, §9

[24] = tested on: PARP cleavage; test: Western blot, PARP cleavage in SH-SY5Y; assay type: cell-based, human; conditions: FIG. 15, compared with (R)-Roscovitine
Description: as §8, §6, §9

[25] = tested on: cell lines; test: Anti-proliferative activities on cell lines, summary; assay type: cell-based; conditions: in words; listed as formula Ib
[26] = Table 5, read-out: CDK1/cyclin B
[27] = Homo sapiens, Lymphocyte, LLC B-cells, read-out: Cell death induction
[28] = Homo sapiens, Lymphocyte, Table 6, read-out: Chronic Lymphocytic Leukemia cell survival

T2 sequence (Q00535 whole entry): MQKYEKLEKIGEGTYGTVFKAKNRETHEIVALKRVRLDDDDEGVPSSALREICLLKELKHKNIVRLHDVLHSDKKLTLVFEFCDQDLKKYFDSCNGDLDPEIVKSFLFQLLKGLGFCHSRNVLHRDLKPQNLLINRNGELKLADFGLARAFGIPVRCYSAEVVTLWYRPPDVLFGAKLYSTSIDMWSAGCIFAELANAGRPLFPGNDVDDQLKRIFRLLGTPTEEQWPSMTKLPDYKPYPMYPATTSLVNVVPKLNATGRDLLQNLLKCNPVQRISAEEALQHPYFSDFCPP
T2 sequence (Q15078 99-307 partner limits assumed): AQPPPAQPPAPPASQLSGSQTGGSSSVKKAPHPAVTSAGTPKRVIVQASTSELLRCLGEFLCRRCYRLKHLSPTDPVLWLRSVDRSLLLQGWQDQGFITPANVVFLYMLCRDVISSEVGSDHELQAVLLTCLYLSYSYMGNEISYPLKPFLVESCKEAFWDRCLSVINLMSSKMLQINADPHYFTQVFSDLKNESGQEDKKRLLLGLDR
T3 sequence (P50750 whole entry): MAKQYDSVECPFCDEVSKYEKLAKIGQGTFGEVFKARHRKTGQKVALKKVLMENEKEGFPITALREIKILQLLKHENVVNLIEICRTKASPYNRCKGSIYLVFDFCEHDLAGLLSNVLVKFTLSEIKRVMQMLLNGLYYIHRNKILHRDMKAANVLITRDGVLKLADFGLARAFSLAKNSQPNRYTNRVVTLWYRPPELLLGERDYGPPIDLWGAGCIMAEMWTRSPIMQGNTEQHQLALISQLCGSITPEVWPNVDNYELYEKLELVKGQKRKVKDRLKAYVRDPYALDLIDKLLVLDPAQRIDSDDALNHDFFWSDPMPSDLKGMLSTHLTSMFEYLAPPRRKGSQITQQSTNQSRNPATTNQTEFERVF
T3 sequence (O60563 whole entry partner): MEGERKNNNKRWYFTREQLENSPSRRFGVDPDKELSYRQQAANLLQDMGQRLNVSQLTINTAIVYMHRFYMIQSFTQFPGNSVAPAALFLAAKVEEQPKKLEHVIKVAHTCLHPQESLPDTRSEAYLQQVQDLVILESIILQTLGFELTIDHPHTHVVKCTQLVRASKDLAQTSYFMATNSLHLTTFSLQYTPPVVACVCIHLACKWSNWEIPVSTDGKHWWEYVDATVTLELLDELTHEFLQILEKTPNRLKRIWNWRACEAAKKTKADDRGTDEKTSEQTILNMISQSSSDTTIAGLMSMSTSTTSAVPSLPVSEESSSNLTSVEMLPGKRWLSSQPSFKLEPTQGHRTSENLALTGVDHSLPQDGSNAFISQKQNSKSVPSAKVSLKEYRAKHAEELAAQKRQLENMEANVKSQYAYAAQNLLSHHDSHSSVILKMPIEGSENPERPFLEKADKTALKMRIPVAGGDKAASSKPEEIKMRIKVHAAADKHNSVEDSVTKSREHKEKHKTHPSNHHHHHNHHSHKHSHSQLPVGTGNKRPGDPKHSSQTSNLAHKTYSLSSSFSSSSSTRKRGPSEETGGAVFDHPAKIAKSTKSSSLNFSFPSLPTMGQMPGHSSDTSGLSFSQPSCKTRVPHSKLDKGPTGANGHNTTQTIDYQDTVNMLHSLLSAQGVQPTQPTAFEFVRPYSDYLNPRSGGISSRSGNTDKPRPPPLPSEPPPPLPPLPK
Sequence of Erk2 (P28482 whole entry, species assumed): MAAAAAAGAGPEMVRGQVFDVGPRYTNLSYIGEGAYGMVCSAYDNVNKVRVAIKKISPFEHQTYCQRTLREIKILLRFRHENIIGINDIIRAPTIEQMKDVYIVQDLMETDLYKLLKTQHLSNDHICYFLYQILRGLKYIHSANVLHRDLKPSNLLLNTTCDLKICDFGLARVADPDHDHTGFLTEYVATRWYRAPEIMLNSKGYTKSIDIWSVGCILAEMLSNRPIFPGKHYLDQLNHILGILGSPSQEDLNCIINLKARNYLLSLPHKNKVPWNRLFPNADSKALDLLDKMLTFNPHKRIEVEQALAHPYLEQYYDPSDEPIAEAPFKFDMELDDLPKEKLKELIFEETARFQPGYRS
Sequence of CDK7/cyclin H (P50613 whole entry, species assumed): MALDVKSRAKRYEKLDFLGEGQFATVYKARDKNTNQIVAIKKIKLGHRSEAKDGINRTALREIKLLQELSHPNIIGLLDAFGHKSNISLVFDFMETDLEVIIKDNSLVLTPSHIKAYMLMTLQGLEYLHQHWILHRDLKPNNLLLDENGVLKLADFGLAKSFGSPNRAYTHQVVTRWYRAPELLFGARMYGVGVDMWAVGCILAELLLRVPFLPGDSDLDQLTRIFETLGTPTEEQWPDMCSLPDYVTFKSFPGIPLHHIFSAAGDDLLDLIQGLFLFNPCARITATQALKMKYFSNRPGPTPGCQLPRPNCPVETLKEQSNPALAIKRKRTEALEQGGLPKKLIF
Sequence of CDK7/cyclin H (P51946 whole entry partner, species assumed): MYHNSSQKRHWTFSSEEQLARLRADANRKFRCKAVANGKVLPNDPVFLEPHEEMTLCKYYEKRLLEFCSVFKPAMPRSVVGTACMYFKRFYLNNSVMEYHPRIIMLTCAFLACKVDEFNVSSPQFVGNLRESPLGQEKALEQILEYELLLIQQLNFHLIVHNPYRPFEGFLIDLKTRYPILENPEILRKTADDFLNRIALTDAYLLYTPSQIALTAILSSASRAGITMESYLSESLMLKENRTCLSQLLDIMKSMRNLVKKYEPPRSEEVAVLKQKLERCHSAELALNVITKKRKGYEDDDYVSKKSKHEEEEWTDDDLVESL

Structure (SMILES)	IC50 [1, 26] [µM]	IC50 [2] [µM]	IC50 [3] [µM]	IC50 ([4]; Table 5, read-out: CDK5/p25) [µM]	IC50 [6] [µM]	IC50 ([7]; Table 5) [µM]	IC50 [8] [µM]	IC50 [9] [µM]	IC50 ([10]; Table 5, read-out: GSK-3α/β) [µM]	IC50 ([11]; Table 6, MTS assay) [µM]	IC50 ([12]; HEK293, Table 6, MTS assay) [µM]	IC50 [13] [µM]	IC50 [14] [µM]	IC50 [15, 27] [µM]	IC50 [15, 28] [µM]	total Rb [16]	total RNA pol II [17]	also measured
CC[C@H](CO)Nc1cc(NCc2ccccc2)c2ncn(C(C)C)c2n1 [(R)-perharidine A]	0.43	0.3	0.18	0.4	0.48	11	2.8	7	> 100	14.3	27.4	21.5	10	7.05	7.05	essentially constant	essentially constant	IC50 ([1]; Table 4, read-out: CDK1): 0.35 µM; IC50 ([4]; Table 4, read-out: CDK5): 0.2 µM; IC50 [5]: 0.9 µM; IC50 ([7]; Table 4): 4 µM; IC50 ([10]; Table 4, read-out: GSK3): > 30 µM; IC50 ([11]; Table 4, MTS assay): 16.2 µM; IC50 ([12]; HEK293, Table 4, MTS assay): 35.6 µM
CC[C@H](CO)Nc1cc(NCc2ccc(-c3ccccn3)cc2)c2ncn(C(C)C)c2n1 [(R)-perharidine C]	0.46	0.36	0.25	0.6	0.53	1.1	11	22	11	1.46			0.35	0.31	0.31	essentially constant	essentially constant	IC50 [18]: 0.29 µM; IC50 [19]: 0.6 µM; IC50 ([15]; LLC B-cells, read-out: Cell death induction): 0.28 µM; inhibition of CDK2/4 in cells (retinoblastoma protein phosphorylation) ([16]; compared with (R)-Roscovitine): at lower concentrations than (R)-Roscovitine; inhibition of CDK9 in cells (RNA polymerase II Ser2 phosphorylation) ([17]; FIG. 9, compared with (R)-Roscovitine): at lower concentration than (R)-Roscovitine; inhibition of CDK1/cyclin B in cells (protein phosphatase 1-α Thr320 phosphorylation) [20]: at lower concentration than (R)-Roscovitine; down-regulation of survival factor Mcl-1 [21]: at lower concentration than (R)-Roscovitine; p53 total protein expression [22]: at lower concentration than (R)-Roscovitine; p27 total protein down-regulation [23]: at lower concentration than (R)-Roscovitine; PARP cleavage [24]: at lower concentration than (R)-Roscovitine
CC[C@@H](CO)Nc1cc(NCc2ccccc2)c2ncn(C(C)C)c2n1 [(S)-perharidine B, (S)-7-Benzylamino-5-[(2-butyl-1-ol)amino]-3-iso-propylimidazo[4,5-b]pyridine]	0.73	0.42	0.31	0.5	1.3	4.8	22	9	> 30	28	45	37.5		15.3	15.3	essentially constant	essentially constant	anti-proliferative activities compared with (R)-Roscovitine [25]: somewhat less efficient
